Experimental data as given in article PMC9971056 (JHEP Reports, 2022).

Tested on: HepG2 cells
Test: LD50 in HepG2 cells
Type: cell-based, Human

## CC1(C)CC[C@]2(C(=O)O)CC[C@]3(C)[C@H](C(=O)C=C4[C@@]5(C)C=C(C#N)C(=O)C(C)(C)[C@@H]5CC[C@]43C)[C@@H]2C1 [bardoxolone]
  LD50 in HepG2 cells: < 1 µM
